Measured values as given in publication PMC12302228 (RSC Medicinal Chemistry, 2025).
≈ marks a conversion by molar mass, not a printed value. Where two headings read alike, the source gives them in different places.

Columns and labels:
MCF7 = test: Antiproliferative activity, SRB assay; type: cell-based, human; settings: mean ± SEM
[1] = Metabolic stability in liver microsomes; type: in vitro ADME, mouse; settings: for half-life at 4 µM / microsomal CLint at 4 µM: mouse, liver microsomes, pH 7.4; for Clearance category MLM: ranked by CLint
histone H2AX = test: H2AX phosphorylation, immunofluorescence in M21 cells; type: cell-based, human; settings: 24 h at 2-fold IC50
physchem = settings: ultrapure water, 37 °C, kinetic from dmso stock
HL-60 = test: Antiproliferative activity, MTT assay; type: cell-based, human; settings: mean ± SEM
[2] = Metabolic stability in liver microsomes; type: in vitro ADME; settings: rat, pH 7.4
[3] = Metabolic stability in liver microsomes; type: in vitro ADME; settings: human, pH 7.4
MOLM-13 cells = test: Differentiation of AML cells, CD11b/CD14 flow cytometry; type: cell-based, human; settings: 120 h at 2-fold IC50
THP-1 = test: Antiproliferative activity, MTT assay; type: cell-based, human; settings: mean ± SEM
HT-29 = test: Antiproliferative activity, SRB assay; type: cell-based, human; settings: mean ± SEM
M21 = test: Antiproliferative activity, SRB assay; type: cell-based, human; settings: mean ± SEM
THP-1 cells = test: Differentiation of AML cells, CD11b/CD14 flow cytometry; type: cell-based, human; settings: 120 h
human DHODH = human DHODH (Homo sapiens, UniProt Q02127); test: Human DHODH colorimetric; type: biochemical
HT-1080 = test: Antiproliferative activity, SRB assay; type: cell-based, human; settings: read-out: IC50 HT-1080; 48 h of treatment; mean ± SEM
MOLM-13 = test: Antiproliferative activity, MTT assay; type: cell-based, human; settings: read-out: IC50 MOLM-13; 48 h of treatment; mean ± SEM
[4] = Homo sapiens, MCF7, 48 h, read-out: IC50 MCF7, 48 h of treatment
[5] = Homo sapiens, HL-60, 48 h, read-out: IC50 HL-60, 48 h of treatment
[6] = read-out: IC50 THP-1, 48 h of treatment
[7] = Homo sapiens, HT-29, 48 h, read-out: IC50 HT-29, 48 h of treatment
[8] = Homo sapiens, M21, 48 h, read-out: IC50 M21, 48 h of treatment
[9] = read-out: IC50 MCF7, 48 h of treatment
[10] = read-out: IC50 HL-60, 48 h of treatment
[11] = read-out: IC50 HT-29, 48 h of treatment
[12] = read-out: IC50 M21, 48 h of treatment

Sequence of human DHODH (Q02127 whole entry): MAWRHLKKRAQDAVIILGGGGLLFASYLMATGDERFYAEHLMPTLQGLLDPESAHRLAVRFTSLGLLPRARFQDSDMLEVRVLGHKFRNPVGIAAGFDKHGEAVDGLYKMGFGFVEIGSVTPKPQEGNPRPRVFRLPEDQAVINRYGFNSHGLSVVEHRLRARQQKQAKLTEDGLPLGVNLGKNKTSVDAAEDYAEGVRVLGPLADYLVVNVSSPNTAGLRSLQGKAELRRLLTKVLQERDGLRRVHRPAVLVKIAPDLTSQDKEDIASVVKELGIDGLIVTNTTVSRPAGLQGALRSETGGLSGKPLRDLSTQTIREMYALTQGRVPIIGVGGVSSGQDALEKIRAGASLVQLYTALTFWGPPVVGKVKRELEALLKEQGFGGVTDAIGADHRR

SMILES | Phosphorylation of H2AX into γH2AX (γH2AX foci) (histone H2AX) | solubility at 24 h (physchem) | IC50 (THP-1; [6]) | IC50 (MCF7; [9]) | IC50 (HL-60; [10]) | IC50 (HT-1080) | IC50 (MOLM-13) | IC50 (HT-29; [11]) | IC50 (M21; [12]) | also measured
CCNC(=O)Nc1ccc(S(=O)(=O)Oc2cccnc2C(C)C)cc1.Cl [Compound 21, 2-Isopropylpyridin-3-yl 4-(3-ethylureido)benzenesulfonate hydrochloride] | promote the phosphorylation of H2AX into γH2AX | 188 ± 1 µg/mL | 6 ± 2 µM |  |  |  |  |  |  | IC50 (MCF7; [4]): 24 ± 3 µM; half-life at 4 µM [1]: 0.95 ± 0.0667 h; microsomal CLint at 4 µM [1]: 25 ± 2 µL/min/mg; Clearance category MLM [1]: medium (medium clearance category for MLM (13.1 < CLint < 71.1)); IC50 (HL-60; [5]): 50 ± 10 µM; half-life at 4 µM [2]: 2.5 ± 0.5 h; microsomal CLint at 4 µM [2]: 11 ± 2 µL/min/mg; half-life at 4 µM [3]: 1.48 ± 0.0333 h; microsomal CLint at 4 µM [3]: 15.7 ± 0.3 µL/min/mg; CD11b expression, share of the cell population (MOLM-13 cells): 26%; IC50 (HT-29; [7]): 8 ± 0.3 µM; IC50 (M21; [8]): 11 ± 1 µM; CD11b and CD14 positivity, share of the cell population (THP-1 cells): 57%; IC50 (human DHODH): 0.012 µM
CCNC(=O)Nc1ccc(S(=O)(=O)Oc2cccnc2C(C)C)cc1 [Compound 3, 2-Isopropylpyridin-3-yl 4-(3-ethylureido)benzenesulfonate] | promote the phosphorylation of H2AX into γH2AX | 40 ± 3 µg/mL (≈ 110 µM) | 1.5 ± 0.3 µM | 19 ± 2 µM | 29 ± 6 µM | 1.2 ± 0.2 µM | 0.8 ± 0.2 µM | 8.4 ± 0.7 µM | 7 ± 1 µM | 
CCCNC(=O)Nc1ccc(S(=O)(=O)Oc2cccnc2C)cc1.Cl [Compound 26, 2-Methylpyridin-3-yl 4-(3-propylureido)benzenesulfonate hydrochloride] |  | 151 ± 1 µg/mL | 6 ± 2 µM | 33 ± 4 µM | 15 ± 3 µM | 15 ± 2 µM | 14 ± 2 µM | > 100 µM | > 100 µM | 
CCCNC(=O)Nc1ccc(S(=O)(=O)Oc2cnccc2C)cc1.Cl [Compound 35, 4-Methylpyridin-3-yl 4-(3-propylureido)benzenesulfonate hydrochloride] |  | 138 ± 2 µg/mL | 5 ± 2 µM | 58 ± 8 µM | 16.3 ± 0.1 µM | 21 ± 2 µM | 9.2 ± 0.8 µM | 39 ± 2 µM | 56 ± 3 µM | 
CCNC(=O)Nc1ccc(S(=O)(=O)Oc2cccnc2I)cc1 [Compound 2, 2-Iodopyridin-3-yl 4-(3-ethylureido)benzenesulfonate] | promote the phosphorylation of H2AX into γH2AX | 57 ± 3 µg/mL (≈ 127 µM) | 3.8 ± 0.6 µM | 11 ± 1 µM | 25 ± 4 µM | 1.4 ± 0.1 µM | 0.9 ± 0.3 µM | 10.6 ± 0.9 µM | 13 ± 2 µM | 
CCNC(=O)Nc1ccc(S(=O)(=O)Oc2cccnc2I)cc1.Cl [Compound 20, 2-Iodopyridin-3-yl 4-(3-ethylureido)benzenesulfonate hydrochloride] | promote the phosphorylation of H2AX into γH2AX | 190 ± 10 µg/mL | 1.1 ± 0.5 µM |  |  |  |  |  |  | IC50 (MCF7; [4]): 12 ± 1 µM; half-life at 4 µM [1]: 1.33 ± 0.167 h; microsomal CLint at 4 µM [1]: 18 ± 2 µL/min/mg; Clearance category MLM [1]: medium (medium clearance category for MLM (13.1 < CLint < 71.1)); IC50 (HL-60; [5]): 37 ± 6 µM; half-life at 4 µM [2]: 3.17 ± 0.333 h; microsomal CLint at 4 µM [2]: 7.4 ± 0.6 µL/min/mg; half-life at 4 µM [3]: 3.6 ± 0.167 h; microsomal CLint at 4 µM [3]: 6.5 ± 0.3 µL/min/mg; CD11b expression, share of the cell population (MOLM-13 cells): 38%; IC50 (HT-29; [7]): 6.8 ± 0.6 µM; IC50 (M21; [8]): 7.7 ± 0.7 µM; IC50 (human DHODH): 0.031 µM
CCNC(=O)Nc1ccc(S(=O)(=O)Oc2cccnc2C)cc1 [Compound 4, 2-Methylpyridin-3-yl 4-(3-ethylureido)benzenesulfonate] |  | 55 ± 1 µg/mL (≈ 164 µM) | 4.4 ± 0.2 µM | 20 ± 3 µM | 50 ± 10 µM | 10.2 ± 0.8 µM | 6 ± 2 µM | 56 ± 3 µM | 79 ± 4 µM | 
CCNC(=O)Nc1ccc(S(=O)(=O)Oc2cccnc2Br)cc1 [Compound 1, 2-Bromopyridin-3-yl 4-(3-ethylureido)benzenesulfonate] |  | 64 ± 1 µg/mL (≈ 160 µM) | 7 ± 1 µM | 31 ± 3 µM | 40 ± 10 µM | 2.1 ± 0.3 µM | 1.1 ± 0.2 µM | 9.7 ± 0.7 µM | 12 ± 1 µM | 
CCCNC(=O)Nc1ccc(S(=O)(=O)Oc2cnccc2I)cc1.Cl [Compound 34, 4-Iodopyridin-3-yl 4-(3-propylureido)benzenesulfonate hydrochloride] |  | 130 ± 10 µg/mL | 2.1 ± 0.6 µM | 13 ± 1 µM | > 50 µM | 5.9 ± 0.5 µM | 2.7 ± 0.5 µM | 14 ± 1 µM | 21 ± 2 µM | 
CCCNC(=O)Nc1ccc(S(=O)(=O)Oc2cccnc2C(C)C)cc1.Cl [Compound 25, 2-Isopropylpyridin-3-yl 4-(3-propylureido)benzenesulfonate hydrochloride] |  | 26 ± 3 µg/mL | 2.4 ± 0.9 µM | 16 ± 1 µM | 8 ± 3 µM | 2.4 ± 0.2 µM | 1.9 ± 0.5 µM | 15 ± 0.8 µM | 20 ± 1 µM | 
CCCNC(=O)Nc1ccc(S(=O)(=O)Oc2cnccc2Br)cc1.Cl [Compound 33, 4-Bromopyridin-3-yl 4-(3-propylureido)benzenesulfonate hydrochloride] |  | 124 ± 2 µg/mL | 4.1 ± 0.7 µM | 24 ± 2 µM | 40 ± 10 µM | 10 ± 0.8 µM | 6 ± 1 µM | 30 ± 1 µM | 40 ± 1 µM | 
Cc1c(-c2ccc(-c3ccccc3F)cc2)nc2ccc(F)cc2c1C(=O)O [Brequinar, reference compound] |  |  |  |  |  |  |  |  |  | IC50 (MCF7; [4]): 3.8 ± 0.9 µM; CD11b expression, share of the cell population (MOLM-13 cells): 34%; IC50 (THP-1; Homo sapiens, THP-1, 48 h, read-out: IC50 THP-1, 48 h of treatment): 0.17 ± 0.04 µM; IC50 (HT-29; [7]): 0.69 ± 0.07 µM; IC50 (M21; [8]): 0.46 ± 0.05 µM
